Laboratory results from patent publication US9822382B2, “Process for making ethanol by fermentation” (Evonik Degussa GmbH, priority 2014, dated 2017).

Experiments:
Rod bacteria [1] = test: Rod bacteria cell count and infection rate, laboratory treatment of yeast cream and fermentation; type: cell-based
Experimental: (§1) Bacterial and yeast cell counts, yeast cell viability and yeast flocculation were determined as described in A. J. Oliveira et al., Curso de treinamento em microbiologia, Piracicaba: FERMENTEC and ESALQ, 1996 and in A. J. Oliveira et al., Métodos para o controle microbiológico na produção de açúcar e álcool, Piracicaba: FERMENTEC, FEALQ and ESALQ, 1996. Bacterial infection rates were calculated as the ratio of the rod bacteria cell count and the yeast cell count.
(§2) The examples were carried out with a yeast cream obtained by separating yeast from a fermented sugar cane mush from a sugar cane ethanol production mill operating with batch fermentation and yeast recycle. The yeast cream was diluted with water to a yeast cell content of about 24% by weight and the pH of the diluted yeast cream was adjusted to a value of 1.8 by adding sulfuric acid.
Then 322 ml of acidified diluted yeast cream were placed in a vessel and 678 ml of cane must having a pH of 6.2 were added with mixing in 5 portions with 1 h intervals between additions. Fermentation of the cane must with the acidified diluted yeast cream was carried out at 33° C. for 21 h. The final pH of the fermented mash was 4.8.
In example 2, equilibrium peroxyacetic acid PERACLEAN® 15 of Evonik was added to the acidified diluted yeast cream in an amount of 50 mg/l and the resulting treated yeast concentrate was kept at 30° C. for 1.7 hours before it was analyzed microbiologically. Thereafter, fermentation was carried out as in example 1.
Examples 1 and 2 were repeated without adding peroxyacetic acid in example 3 and with addition of equilibrium peroxyacetic acid PERACLEAN® 15 in an amount of 60 mg/l peroxyacetic acid in example 4. The treated yeast cream was kept at 30° C. for 2 hours before it was analyzed microbiologically and fermentation was started.
as §2, with “that operates” for “operating”, “fed-batch” for “batch”, “27%” for “24%”, “weight. The” for “weight and the”, “4.0.” for “adjusted to a value of 1.8 by adding sulfuric acid.”
In example 6, equilibrium peroxyacetic acid PERACLEAN® 15 of Evonik was added to the diluted yeast cream in an amount of 50 mg/l and the resulting treated yeast concentrate was kept at 30° C. for 2.3 hours before it was analyzed microbiologically.
In example 8, the pH of the diluted yeast cream was adjusted as in example 7, equilibrium peroxyacetic acid PERACLEAN® 15 of Evonik was added to the acidified diluted yeast cream in an amount of 50 mg/l and the resulting treated yeast concentrate was kept at 30° C. for 2.0 hours before it was analyzed microbiologically.

Rod bacteria [2] = test: Rod bacteria cell count and infection rate in fermented mash, sugar cane ethanol production mill trial; type: cell-based
Experimental: as §1
Examples 9 to 11 were carried out in a sugar cane ethanol production mill operating 6 fermenters in fed-batch. The fermented mash is sent to a centrifuge which separates yeast cream with an average yeast content of 63% by weight. The yeast cream is diluted with water to an average yeast content of 27% by weight and transferred to a stirred yeast cream recovery tank. Diluted yeast cream is passed continuously from this tank to a stirred yeast treatment tank at a rate of from 42 to 127 m^3/h. Sulfuric acid is added to the yeast treatment tank to maintain a pH in the range from 1.8 to 2.8. The average residence time in both the yeast cream recovery tank and the yeast treatment tank is in the range of from 1.3 to 4.0 h. Fermentation is carried out by charging the acidified yeast concentrate to a fermenter over a 1 to 2 h period, followed by feeding sugar cane mash with a sugar content of 22° Brix and a pH of 5.8 to the fermenter over a 6 h period. Fermentation is continued for a further 2 h without feed and the fermented mash is sent to a centrifuge. Bacterial contamination was monitored by microbiological analysis of samples of fermented mash taken before feeding the mash to a centrifuge. Samples were analyzed for bacterial and yeast cell counts and for yeast cell viability and yeast flocculation.
In example 9, equilibrium peroxyacetic acid PERACLEAN® 15 of Evonik was dosed to the yeast treatment tank for 28 h in an amount of 60 ppm during days 3 and 4 of the experiment. pH in the yeast treatment tank was maintained in the range of from 1.84 to 2.02.
In example 10, equilibrium peroxyacetic acid PERACLEAN® 15 of Evonik was dosed to the yeast treatment tank for 43 h during days 6 and 7 of the experiment in an amount that was lowered stepwise from 49 ppm to 20 ppm. pH in the yeast treatment tank was maintained in the range of from 1.97 to 2.60.
In example 11, equilibrium peroxyacetic acid PERACLEAN® 15 of Evonik was dosed to the yeast cream recovery tank on days 2 and 3 of the experiment for 13 h in an amount of 50 ppm, followed by dosing for 28 h in an amount of 30 ppm. During this period the pH in the yeast cream recovery tank was in the range of from 3.0 to 3.3. Then dosing of peroxyacetic acid to the yeast cream recovery tank was stopped and peroxyacetic acid was dosed to the yeast treatment tank for 18 h in an amount of 30 ppm. During this period the pH in the yeast treatment tank was about 2.0.

[3] = Example 2, 50 ppm, pH 1.8, fermented mash after 21 h
[4] = Example 2, 50 ppm, pH 1.8, treated yeast concentrate, 30° C. 1.7 hours
[5] = Example 4, 60 ppm, pH 1.8, fermented mash after 19 h
[6] = Example 4, 60 ppm, pH 1.8, treated yeast concentrate, 30° C. 2 hours
[7] = Example 6, 50 mg/l, no pH adjustment (pH 4.17), treated yeast concentrate, 30° C. 2.3 hours
[8] = Example 8, 50 mg/l, pH adjusted to 2.0 with sulfuric acid (pH 2.40), treated yeast concentrate, 30° C. 2.0 hours
[9] = Example 9, fermenter 2, day 3, 60 ppm to yeast treatment tank during days 3 and 4, pH 1.84 to 2.02
[10] = Example 9, fermenter 2, day 4, 60 ppm to yeast treatment tank during days 3 and 4, pH 1.84 to 2.02
[11] = Example 9, fermenter 2, day 5, after addition (60 ppm, days 3 and 4) was stopped
[12] = Example 9, fermenter 4, day 3, 60 ppm to yeast treatment tank during days 3 and 4, pH 1.84 to 2.02
[13] = Example 9, fermenter 4, day 4, 60 ppm to yeast treatment tank during days 3 and 4, pH 1.84 to 2.02
[14] = Example 9, fermenter 4, day 6, after addition (60 ppm, days 3 and 4) was stopped
[15] = Example 10, fermenter 2, day 6, 49 ppm lowered stepwise to 20 ppm to yeast treatment tank during days 6 and 7, pH 1.97 to 2.60
[16] = Example 10, fermenter 2, day 7, 49 ppm lowered stepwise to 20 ppm to yeast treatment tank during days 6 and 7, pH 1.97 to 2.60
[17] = Example 10, fermenter 2, day 8, after dosing during days 6 and 7
[18] = Example 10, fermenter 2, day 9, after dosing during days 6 and 7
[19] = Example 10, fermenter 3, day 6, 49 ppm lowered stepwise to 20 ppm to yeast treatment tank during days 6 and 7, pH 1.97 to 2.60
[20] = Example 10, fermenter 3, day 7, 49 ppm lowered stepwise to 20 ppm to yeast treatment tank during days 6 and 7, pH 1.97 to 2.60
[21] = Example 10, fermenter 3, day 8, after dosing during days 6 and 7
[22] = Example 10, fermenter 3, day 9, after dosing during days 6 and 7
[23] = Example 11, fermenter 3, day 2, 50 ppm then 30 ppm to yeast cream recovery tank on days 2 and 3, pH 3.0 to 3.3
[24] = Example 11, fermenter 3, day 4, after recovery tank dosing, 30 ppm to yeast treatment tank for 18 h, pH about 2.0

CC(=O)OO [peroxyacetic acid]
Infection rate in % (Rod bacteria [1]; [3]): 2.6%
Rod bacteria cells/ml (Rod bacteria [1]; [3]): 6.1*10^6 cells/ml
Infection rate in % (Rod bacteria [1]; [4]): 0.5%
Rod bacteria cells/ml (Rod bacteria [1]; [4]): 2.9*10^6 cells/ml
Infection rate in % (Rod bacteria [1]; [5]): 0.1%
Rod bacteria cells/ml (Rod bacteria [1]; [5]): 0.22*10^6 cells/ml
Infection rate in % (Rod bacteria [1]; [6]): 0.3%
Rod bacteria cells/ml (Rod bacteria [1]; [6]): 1.8*10^6 cells/ml
Infection rate in % (Rod bacteria [1]; [7]): 8.3%
Rod bacteria cells/ml (Rod bacteria [1]; [7]): 68*10^6 cells/ml
Infection rate in % (Rod bacteria [1]; [8]): 1.7%
Rod bacteria cells/ml (Rod bacteria [1]; [8]): 14*10^6 cells/ml
effectiveness of treatment of the yeast concentrate against bacterial contamination (Rod bacteria [1]; pH not adjusted to the claimed range by addition of acid (table 5)): ineffective
combined effect of pH adjustment with mineral acid and peroxyacetic acid addition (Rod bacteria [1]; table 5, Examples 5 to 8): synergistic effect
bacterial contamination of the fermented mash (Rod bacteria [1]; treatment of the yeast concentrate at pH 1.8 before using it for the fermentation): effective in preventing bacterial contamination
Infection rate in % (Rod bacteria [2]; [9]): 11%
Rod bacteria cells/ml (Rod bacteria [2]; [9]): 28*10^6 cells/ml
Infection rate in % (Rod bacteria [2]; [10]): 10%
Rod bacteria cells/ml (Rod bacteria [2]; [10]): 39*10^6 cells/ml
Infection rate in % (Rod bacteria [2]; [11]): 18%
Rod bacteria cells/ml (Rod bacteria [2]; [11]): 51*10^6 cells/ml
Infection rate in % (Rod bacteria [2]; [12]): 11%
Rod bacteria cells/ml (Rod bacteria [2]; [12]): 53*10^6 cells/ml
Infection rate in % (Rod bacteria [2]; [13]): 3%
Rod bacteria cells/ml (Rod bacteria [2]; [13]): 20*10^6 cells/ml
Infection rate in % (Rod bacteria [2]; [14]): 22%
Rod bacteria cells/ml (Rod bacteria [2]; [14]): 57*10^6 cells/ml
bacterial contamination and yeast flocculation (Rod bacteria [2]; Example 9, upon addition of 60 ppm to yeast treatment tank, return when addition is stopped): reduced
control of bacterial contamination and yeast flocculation (Rod bacteria [2]; Example 10, continuous addition of 20 ppm to the acidified yeast concentrate): sufficient to control bacterial contamination and avoid yeast flocculation
Infection rate in % (Rod bacteria [2]; [15]): 2.8%
Rod bacteria cells/ml (Rod bacteria [2]; [15]): 9.6*10^6 cells/ml
Infection rate in % (Rod bacteria [2]; [16]): 0.5%
Rod bacteria cells/ml (Rod bacteria [2]; [16]): 1.4*10^6 cells/ml
Infection rate in % (Rod bacteria [2]; [17]): 8.1%
Rod bacteria cells/ml (Rod bacteria [2]; [17]): 24*10^6 cells/ml
Infection rate in % (Rod bacteria [2]; [18]): 11%
Rod bacteria cells/ml (Rod bacteria [2]; [18]): 29*10^6 cells/ml
Infection rate in % (Rod bacteria [2]; [19]): 1.5%
Rod bacteria cells/ml (Rod bacteria [2]; [19]): 3.0*10^6 cells/ml
Infection rate in % (Rod bacteria [2]; [20]): 0.2%
Rod bacteria cells/ml (Rod bacteria [2]; [20]): 0.7*10^6 cells/ml
Infection rate in % (Rod bacteria [2]; [21]): 4.4%
Rod bacteria cells/ml (Rod bacteria [2]; [21]): 13*10^6 cells/ml
Infection rate in % (Rod bacteria [2]; [22]): 7.5%
Rod bacteria cells/ml (Rod bacteria [2]; [22]): 22*10^6 cells/ml
effectiveness of addition depending on pH of yeast concentrate (Rod bacteria [2]; Example 11, dosing at pH 3.0 to 3.3 versus about 2.0): effective only for an acidified yeast concentrate at a pH of less than 3.0
Infection rate in % (Rod bacteria [2]; [23]): 11%
Rod bacteria cells/ml (Rod bacteria [2]; [23]): 32*10^6 cells/ml
Infection rate in % (Rod bacteria [2]; [24]): 2%
Rod bacteria cells/ml (Rod bacteria [2]; [24]): 8.4*10^6 cells/ml
Infection rate in % (Rod bacteria [2]; Example 11, fermenter 3, day 6, after the dosing periods): 18%
